Data: publication PMC8484140 (Targeted Oncology, 2021)

Legend:
[1] = Pharmacokinetics of exemestane, additional 21 patients; format: in vivo; settings: female, human, plasma, oral
advanced breast cancer = settings: in combination with exemestane; cited from earlier work

SMILES | Tmax [1] [h] | half-life [1] [h] | AUC(0-t) ([1]; 25 mg) [ng·h/mL] | Cmax ([1]; 25 mg) [ng/mL] | Tmax ([1]; 25 mg) [h] | half-life ([1]; 25 mg) [h] | Median PFS (advanced breast cancer) [months] | Neutropenia, patients (advanced breast cancer) [%] | Thrombocytopenia, patients (advanced breast cancer) [%]
C=C1C[C@@H]2[C@H](CC[C@]3(C)C(=O)CC[C@@H]23)[C@@]2(C)C=CC(=O)C=C12 [Exemestane] | 3.95 | 5.68 | 54.6 | 17 | 1.02 | 6.24 |  |  | 
Nc1cc(F)ccc1NC(=O)c1ccc(CNC(=O)/C=C/c2cccnc2)cc1 [chidamide] |  |  |  |  |  |  | 7.4 | 51 | 28
